Assay results as given in US10975042B2, “Method for purifying an amino acid-n-carboxy anhydride” (SHIN-ETSU CHEMICAL CO., LTD., priority 2018, dated 2021).

What was measured:
[1] = Solubility of NCA to good solvent and poor solvent, visual observation; format: physicochemical
Description: The method to determine that the solvent is a good solvent for NCA includes a method of adding a good solvent to NCA with stirring, followed by visual observation to confirm that the NCA has been dissolved without forming turbidity, but is not particularly limited if complete dissolution can be determined by the method.
The method to determine that the solvent is a poor solvent for NCA is not particularly limited if total insolubility can be confirmed, including a method of adding a poor solvent to NCA with stirring, followed by confirming that the NCA is not dissolved at all and turbidity is not observed by visual inspection.
On the other hand, in order to determine the solubility of NCA to n-hexane, which is a poor solvent, 0.2 g of the purified NCA shown by the structural formula (A) was tried to be dissolved in 2.0 g of n-hexane.
[…] On the other hand, as a method to determine the solubility to a poor solvent, 2.0 g of n-hexane was added to 0.2 g of each NCA after purification.

[2] = Long-term storage stability of NCA, purity by DSC; format: physicochemical; settings: for Purity after purification / Purity after 1 month from purification / Purity after 2 months from purification / Purity after a half year from purification / Purity after 1 year from purification / Purity after 2 years from purification: DSC
Protocol: In Examples and Comparative Examples, the purity of each NCA was measured using differential scanning calorimeter (DSC) in accordance with 2.52 thermal analysis method of The Japanese Pharmacopoeia, 17th ed. (2.4.4. measurement of purity). The measurement was performed using Thermo plus EVO DSC8230 (manufactured by Rigalu Corporation) as a measurement apparatus with the sample amount of 1 mg at a temperature increasing rate of 1° C./minute. Incidentally, it is conceived that precise measurement cannot be guaranteed unless the purity is 98 mol % or more according to 2.52 thermal analysis method of The Japanese Pharmacopoeia, 17th ed. (2.4.4. measurement of purity).
Each purified NCA was evaluated for long-term storage stability. […] Regarding the conditions of −20±5° C., the results of purity measured by DSC at after a half year, after 1 year, and after 2 years are shown. Regarding the conditions of 0 to 5° C., the results of purity measured by DSC at after 1 month, 2 months, and a half year are shown. As a comparison, commercially available NCA shown by the general formula (A) (manufactured by Isochem), the purity of which is more than 98 mol % based on the DSC measurement, was evaluated and shown as Comparison 1. This NCA has a residual chlorine concentration of 0.030 mass % and belongs to a lot with extremely low residual chlorine concentration in commercially available NCAs.

[3] = initial value of storage test at 0 to 5° C.
[4] = initial value of storage test at −20±5° C.

SMILES	solubility of NCA to n-hexane (poor solvent), purified NCA ([1]; 0.2 g purified NCA in 2.0 g n-hexane)	Purity after purification [2, 3] [mol %]	Purity after purification [2, 4] [mol %]	Purity after 1 month from purification ([2]; storage at 0 to 5° C.) [mol %]	Purity after 2 months from purification ([2]; storage at 0 to 5° C.) [mol %]	Purity after a half year from purification ([2]; storage at 0 to 5° C.) [mol %]	Purity after 1 year from purification ([2]; storage at −20±5° C.) [mol %]	Purity after 2 years from purification ([2]; storage at −20±5° C.) [mol %]	Purity after a half year from purification ([2]; storage at −20±5° C.) [mol %]	long term storage stability (lowering of purity) at 0 to 5° C. ([2]; 0 to 5° C., up to a half year)	long term storage stability (lowering of purity) at −20° C. ([2]; −20° C., up to 2 years)	solubility of NCA to ethyl acetate (good solvent), purified NCA ([1]; 0.2 g purified NCA in 1.0 g ethyl acetate)	solubility of NCA to ethyl acetate (good solvent), NCA before purification ([1]; NCA before purification in ethyl acetate)
CC(C)(C)OC(=O)CCC1CC(=O)OC1=O (stereo not shown) [(A)]	dissolution was not determined visually	98.93	98.93	98.93	98.92	98.90	98.92	98.90	98.94	–	–	undissolved impurity was not determined visually	undissolved impurities were determined visually
CN1CC(=O)OC1=O [(K)]	–	98.94	98.94	98.93	98.92	98.90	98.92	98.93	98.90	–	–	–	–
CC(C)(C)OC(=O)N1CC(=O)OC1=O [(L)]	–	99.05	99.05	99.07	99.05	99.07	99.04	99.05	99.02	–	–	–	–
CC(=O)N1CC(=O)OC1=O [(M)]	–	99.22	99.22	99.23	99.22	99.24	99.23	99.23	99.23	–	–	–	–
O=C1NC(Cc2ccccc2)C(=O)O1 (stereo not shown) [(N)]	–	98.88	98.88	98.88	98.86	98.86	98.86	98.85	98.85	–	–	–	–
CC(C)C1NC(=O)OC1=O (stereo not shown) [(O)]	–	98.80	98.80	98.77	98.75	98.73	98.79	98.79	98.77	–	–	–	–

The next lines start with results.

solubility of NCA to n-hexane (poor solvent), purified NCA ([1]; 0.2 g purified NCA in 2.0 g n-hexane)	Purity after purification [2, 3] [mol %]	Purity after purification [2, 4] [mol %]	Purity after 1 month from purification ([2]; storage at 0 to 5° C.) [mol %]	Purity after 2 months from purification ([2]; storage at 0 to 5° C.) [mol %]	Purity after a half year from purification ([2]; storage at 0 to 5° C.) [mol %]	Purity after 1 year from purification ([2]; storage at −20±5° C.) [mol %]	Purity after 2 years from purification ([2]; storage at −20±5° C.) [mol %]	Purity after a half year from purification ([2]; storage at −20±5° C.) [mol %]	long term storage stability (lowering of purity) at 0 to 5° C. ([2]; 0 to 5° C., up to a half year)	long term storage stability (lowering of purity) at −20° C. ([2]; −20° C., up to 2 years)	SMILES	solubility of NCA to ethyl acetate (good solvent), purified NCA ([1]; 0.2 g purified NCA in 1.0 g ethyl acetate)	solubility of NCA to ethyl acetate (good solvent), NCA before purification ([1]; NCA before purification in ethyl acetate)
–	98.91	98.91	98.93	98.94	98.94	98.90	98.91	98.92	–	–	CC(C)CC1NC(=O)OC1=O (stereo not shown) [(P)]	–	–
–	99.32	99.32	99.31	99.31	99.32	99.33	99.33	99.33	–	–	O=C1CCNC(=O)O1 [(Q)]	–	–
–	99.03	99.03	99.05	99.04	99.03	99.06	99.05	99.07	–	–	O=C1CCCNC(=O)O1 [(R)]	–	–
–	98.14	98.14	<98	<98	<98	98.02	<98	98.06	lowered in 1 month	the purity was lowered in 2 years	CC(C)(C)OC(=O)CCC1CC(=O)OC1=O (stereo not shown) [Comparison 1, reference compound]	–	–
